Measurements: ChEMBL document CHEMBL4739717, “Methods of treating cartilage disorders through inhibition of clk and dyrk” (2020)

How the values were obtained:
[1] = Effect on Wnt signaling pathway in human SW480 cells harbouring TCF/LEF luciferase reporter gene and SP5-Luc reporter gene incubated for 36 to 48 hrs by luminescence assay; type: cell-based
[2] = molecular target: Dual specificity tyrosine-phosphorylation-regulated kinase 1A (Homo sapiens, UniProt Q13627); assay: Inhibition of recombinant DYRK1A (unknown origin) using Ser/Thr 18 peptide as substrate incubated for 1 hr in presence of ATP by FRET assay
[3] = Induction of chondrogenesis in human MSC assessed as maximum activity at 100 nM incubated for 6 days by rhodamine B and Nile red staining based imaging analysis relative to control; type: functional; conditions: BMMSC, 144 h, time 6 day
[4] = Induction of chondrogenesis in human MSC assessed as maximum activity at 30 nM incubated for 6 days by rhodamine B and Nile red staining based imaging analysis relative to control; type: functional; conditions: BMMSC, 144 h, time 6 day
[5] = Inhibition of IL1-beta induced MMP3 expression levels in human chondrocytes assessed as MMP3 levels incubated for 2hrs followed by IL1-beta stimulation and measured after overnight incubation by LANCE assay; type: functional, cell-based; conditions: Chondrocyte
[6] = Induction of chondrogenesis in human MSC assessed as incubated for 6 days by rhodamine B and Nile red staining based imaging analysis; type: functional; conditions: bmmsc

Structure (SMILES)	EC50 [1] [nM]	EC50 [2] [nM]	EC50 [5] [nM]	EC50 [6] [nM]	Emax at 0.1 µM [3] [%]	Emax at 0.03 µM [4] [%]
CC(C)C(=O)Nc1cncc(-c2ccc3[nH]nc(-c4cc5c(-c6cccnc6)cncc5[nH]4)c3c2)c1	260	6	–	–	34.5	–
c1cc2[nH]c(-c3n[nH]c4ccc(-c5cncc(CN6CCCCC6)c5)cc34)cc2c(N2CCCCC2)n1	4210	32	–	–	48.1	–
Fc1cccc(-c2nccc3[nH]c(-c4n[nH]c5ccc(-c6cncc(CN7CCCCC7)c6)nc45)cc23)c1	3750	71	–	–	48	–
CN1CCN(c2cncc3[nH]c(-c4n[nH]c5ccc(-c6cncc(CNCc7ccccc7)c6)cc45)cc23)CC1	3290	7	329	30	–	101
CN1CCN(c2nccc3[nH]c(-c4n[nH]c5ncc(-c6cncc(NC(=O)C7CCCC7)c6)cc45)cc23)CC1	> 10000	7	–	–	30.3	–
O=C(Nc1c[nH]nc1C(=O)Nc1cncc(-c2cccc(F)c2)c1)c1cncc(OC2CCNCC2)c1	1600	12	339	–	–	89.5
CC(C)Nc1cncc(-c2ccc3[nH]nc(-c4cc5c(-c6cccnc6)cncc5[nH]4)c3c2)c1	670	21	–	–	41.9	–
c1cncc(-c2cnc3[nH]nc(-c4nc5c(-c6cccnc6)cncc5[nH]4)c3c2)c1	> 10000	86	–	–	62.9	–
CC(C)(C)C(=O)Nc1cncc(-c2ccc3[nH]nc(-c4cc5c(-c6ccncc6)ccnc5[nH]4)c3c2)c1	> 10000	20	–	–	44.4	–
O=C(Nc1cncc(-c2cnc3[nH]nc(-c4cc5c(-c6ccncc6)cncc5[nH]4)c3c2)c1)C1CCC1	> 10000	4	17.9	–	–	43.5
O=C(CC1CCNCC1)Nc1cncc(-c2ccc3[nH]nc(-c4cc5c(N6CCCCC6)nccc5[nH]4)c3n2)c1	> 10000	6	1470	–	–	21.8
Cn1ncc(-c2ccc3cnc(NC(=O)c4cccc(CN5CCCC5)c4)cc3c2)c1CN1CCCCC1	–	–	1190	–	–	27.6
O=C(Nc1cncc(-c2ccc3[nH]nc(-c4cc5ccncc5[nH]4)c3n2)c1)C1CCCC1	2630	12	–	30	–	50.3
CN(C)Cc1cncc(-c2cnc3[nH]nc(-c4cc5c(-c6ccccc6F)cncc5[nH]4)c3c2)c1	2490	12	–	30	–	60.9
O=C(Nc1cncc(-c2ccc3[nH]nc(-c4cc5c(-c6ccccc6F)nccc5[nH]4)c3c2)c1)C1CCCC1	418	81	–	10	–	70.8
CCCCC(=O)Nc1cncc(-c2ccc3[nH]nc(-c4cc5c(N6CCCCC6)nccc5[nH]4)c3n2)c1	4050	43	–	30	–	54.7
O=C(Nc1cncc(-c2ccc3[nH]nc(-c4nc5c(-c6ccncc6)ccnc5[nH]4)c3n2)c1)C1CCCCC1	999	26	–	10	–	68.6
c1cncc(-c2ccc3[nH]nc(-c4nc5c(-c6cccnc6)cncc5[nH]4)c3n2)c1	> 10000	47	–	30	–	83.8
CC(C)(C)CC(=O)Nc1cncc(-c2cc3c(-c4cc5c(-c6ccccc6F)nccc5[nH]4)n[nH]c3cn2)c1	1030	50	–	30	–	54.3
Cc1nnc(-c2ccc3cnc(NC(=O)c4ccnc(N(C)C5CCN(C)CC5)c4)cc3c2)s1	–	–	2.7	–	–	25.7
Nc1cncc(-c2ccc3[nH]nc(-c4cc5c(N6CCCCC6)ccnc5[nH]4)c3c2)c1	604	33	–	30	–	130
CN1CCN(c2nccc3[nH]c(-c4n[nH]c5ccc(-c6cncc(N)c6)nc45)nc23)CC1	> 10000	45	–	100	–	135
FC1(F)CCN(Cc2cncc(-c3ccc4[nH]nc(-c5cc6c(-c7ccccn7)cccc6[nH]5)c4n3)c2)C1	432	33	–	10	–	81.9
CN(C)Cc1cncc(-c2ccc3[nH]nc(-c4cc5cnccc5[nH]4)c3n2)c1	1140	13	–	30	–	119

More lines, in order of falling EC50 [1], values ahead:

EC50 [1] [nM]	EC50 [2] [nM]	EC50 [5] [nM]	EC50 [6] [nM]	Structure (SMILES)	Emax at 0.1 µM [3] [%]	Emax at 0.03 µM [4] [%]
154	5	–	30	CC(C)Nc1cncc(-c2cnc3[nH]nc(-c4nc5c(-c6cc(F)cc(NCCN(C)C)c6)nccc5[nH]4)c3c2)c1	–	82.9
116	6	–	10	FC1(F)CCN(Cc2cncc(-c3cc4c(-c5nc6c(N7CCCCC7)cncc6[nH]5)n[nH]c4cn3)c2)C1	–	100
92.4	42	–	100	c1cncc(-c2cc3c(-c4nc5c(-c6cccnc6)cccc5[nH]4)n[nH]c3cn2)c1	–	93
85.7	4	35.5	–	CN1CCN(c2nccc3[nH]c(-c4n[nH]c5cc(F)c(-c6cnn(C)c6)cc45)nc23)CC1	–	113
57	10	–	–	CN(C)Cc1cncc(-c2cnc3[nH]nc(-c4nc5c(-c6ccsc6)cncc5[nH]4)c3c2)c1	91.3	–
48	9	3000	30	CN(C)Cc1cncc(-c2cnc3[nH]nc(-c4nc5c(-c6cccs6)cncc5[nH]4)c3c2)c1	–	146
33	17	–	30	O=C(Cc1ccccc1)Nc1cncc(-c2ccc3[nH]nc(-c4nc5c(-c6ccoc6)cncc5[nH]4)c3c2)c1	–	102
20	22	–	–	FC1(F)CCN(Cc2cncc(-c3ccc4[nH]nc(-c5nc6c(N7CCCCC7)cncc6[nH]5)c4c3)c2)C1	80.1	–
13	5	–	30	CN(C)Cc1cncc(-c2cnc3[nH]nc(-c4nc5c(-c6cccc(F)c6)cncc5[nH]4)c3c2)c1	–	183
11.1	39	–	30	Cn1cc(-c2cnc3[nH]nc(-c4nc5c(-c6cccc(F)c6)nccc5[nH]4)c3c2)cn1	–	74.9
10.4	9	–	30	Cc1cn(-c2nccc3[nH]c(-c4n[nH]c5ccc(-c6cncc(NC(=O)CC(C)C)c6)cc45)nc23)cn1	–	73.7
4.6	61	–	30	CCC(=O)Nc1cncc(-c2ccc3[nH]nc(-c4nc5c(-c6cccc(F)c6)cncc5[nH]4)c3c2)c1	–	139
4	10	3000	30	CC(C)C(=O)Nc1cncc(-c2ccc3[nH]nc(-c4nc5c(-c6ccccc6F)cncc5[nH]4)c3c2)c1	–	102
2	5	–	30	Nc1cncc(-c2ccc3[nH]nc(-c4nc5c(-c6ccccc6F)ccnc5[nH]4)c3c2)c1	–	113
